By pIC50 is commonly meant −log10 of the IC50, conventionally taken in molar units. A higher pIC50 goes with a low IC50. What is called MIC is the smallest concentration in the dilution series that meets the test's criterion for growth inhibition.

The subject of experiment [1] is E. coli RNase P RNA, M1 RNA. Briefly: Inhibition of bacterial RNase P activity, IC50 determination (cleavage of pATSerUG by M1 RNA). Type of experiment: biochemical. The conditions noted are these: NI: No inhibition.
The subject of experiment [2] is Escherichia coli (ATCC25922). Briefly: MIC, broth microdilution (CLSI), Escherichia coli. The conditions noted are these: Escherichia coli, ATCC25922, read-out: E. coli ATCC 25922 MIC, Table XIII. For orientation: In broth dilution the organism is exposed to a series of concentrations in liquid medium.
In experiment [3] the test system is Staphylococcus aureus (ATCC25923). Briefly: MIC, broth microdilution (CLSI), Staphylococcus aureus ATCC25923. The conditions noted are these: Staphylococcus aureus, ATCC25923, read-out: S. aureus ATCC 25923 MIC.

pIC50: −log10 of the molar value. Structures can show the parent of a compound that is named as a salt. Bounds are passed on as bounds.

`Cl.N[C@H]1CC[C@H](NC(=O)CCc2cn(CC3CCCCC3)c3ccccc23)CC1` [Compound 116, N-((1r,4r)-4-aminocyclohexyl)-3-(1-(cyclohexylmethyl)-1H-indol-3-yl)propanamide hydrochloride salt] showed a pIC50 in experiment [1] of 3.80. For the same molecule, the MIC in experiment [2] and in experiment [3] was 128 µg/mL each time.

`Cl.O=C(CCc1cn(CC2CCCCC2)c2ccccc12)NCCC1CCNCC1` [Compound 117, 3-(1-(cyclohexylmethyl)-1H-indol-3-yl)-N-(2-(piperidin-4-yl)ethyl)propanamide hydrochloride salt] gave a negative logarithm of the IC50 (pIC50) in experiment [1] of 3.78. In addition, the MIC in experiment [2] and in experiment [3] was 256 µg/mL each time.

Regarding `Cc1cccc(C(CC(=O)NC2CCNCC2)c2cn(CC3CCCCC3)c3ccc(F)cc23)c1.Cl` (stereo not drawn) [Compound 118, 3-(1-(cyclohexylmethyl)-5-fluoro-1H-indol-3-yl)-N-(piperidin-4-yl)-3-(m-tolyl)propanamide hydrochloride salt], the pIC50 in experiment [1] was 4.41. The MIC came out at 32 µg/mL in experiment [2] and 8 µg/mL in experiment [3].

In experiment [1], `Cc1cccc(C(CC(=O)NCCC2CCNCC2)c2cn(CC3CCCCC3)c3ccc(F)cc23)c1.Cl` (stereo not drawn) [Compound 119, 3-(1-(cyclohexylmethyl)-5-fluoro-1H-indol-3-yl)-N-(2-(piperidin-4-yl)ethyl)-3-(m-tolyl)propanamide hydrochloride salt] had a pIC50 of 4.72. Also, the values for the MIC in experiment [2] and in experiment [3] were 32 µg/mL and 8 µg/mL, respectively.

Molecule `Cc1cccc(C(CC(=O)NC2CCNCC2)c2cn(CC3CCCCC3)c3ccc(Br)cc23)c1.Cl` (stereo not drawn) [Compound 121, 3-(5-bromo-1-(cyclohexylmethyl)-1H-indol-3-yl)-N-(piperidin-4-yl)-3-(m-tolyl) propanamide hydrochloride salt] had a pIC50 in experiment [1] of 5.10. The MIC in experiment [2] was found to be 256 µg/mL; in experiment [3] it was 8 µg/mL.

Turning to `Cc1cccc(C(CC(=O)NC2CCNCC2)c2cn(CC3CC3)c3ccccc23)c1.Cl` (stereo not drawn) [Compound 123, 3-(1-(cyclopropylmethyl)-1H-indol-3-yl)-N-(piperidin-4-yl)-3-(m-tolyl)propanamide hydrochloride salt], the pIC50 in experiment [1] is 3.41. In addition, the MIC in experiment [2] was determined as 256 µg/mL; in experiment [3] it was 64 µg/mL.

In turn, `Cc1cccc(C(CC(=O)N[C@H]2CC[C@H](N)CC2)c2cn(CC3CC3)c3ccccc23)c1.Cl` (stereo partly drawn) [Compound 124, N-((1R,4R)-4-aminocyclohexyl)-3-(1-(cyclopropylmethyl)-1H-indol-3-yl)-3-(m-tolyl)propanamide hydrochloride salt] gave a pIC50 in experiment [1] of 3.83. The minimum inhibitory concentration (MIC) worked out at 256 µg/mL in experiment [2] and 128 µg/mL in experiment [3].

For the molecule `Cc1cccc(C(CC(=O)N[C@H]2CC[C@H](N)CC2)c2cn(CC3CCCCC3)c3ccc(F)cc23)c1.Cl` (stereo partly drawn) [Compound 125, N-((1R,4R)-4-aminocyclohexyl)-3-(1-(cyclohexylmethyl)-5-fluoro-1H-indol-3-yl)-3-(m-tolyl)propanamide hydrochloride salt], in experiment [1], the pIC50 was 4.54. For the same molecule, the figures for the MIC in experiment [2] and in experiment [3] were 256 µg/mL and 8 µg/mL, respectively.

The molecule `Cc1cccc(C(CC(=O)N[C@H]2CC[C@H](N)CC2)c2cn(CC3CCCCC3)c3ccc(Br)cc23)c1.Cl` (stereo partly drawn) [Compound 126, N-((1R,4R)-4-aminocyclohexyl)-3-(5-bromo-1-(cyclohexylmethyl)-1H-indol-3-yl)-3-(m-tolyl)propanamide hydrochloride salt] showed a pIC50 in experiment [1] of 5.24. Also, the MIC is more than 512 µg/mL in experiment [2] and 4 µg/mL in experiment [3].

Molecule `COc1cc(OC)cc(C(CC(=O)N[C@H]2CC[C@H](N)CC2)c2cn(CC3CCCCC3)c3ccccc23)c1.Cl` (stereo partly drawn) [Compound 127, N-((1R,4R)-4-aminocyclohexyl)-3-(1-(cyclohexylmethyl)-1H-indol-3-yl)-3-(3,5-dimethoxyphenyl) propanamide hydrochloride salt] showed a pIC50 in experiment [1] of 4.72. For the same molecule, the MIC in experiment [2] was more than 512 µg/mL; in experiment [3], 512 µg/mL.

`Cl.N[C@H]1CC[C@H](NC(=O)CC(c2cccc(C(F)(F)F)c2)c2cn(CC3CCCCC3)c3ccccc23)CC1` (stereo partly drawn) [Compound 129, N-((1R,4R)-4-aminocyclohexyl)-3-(1-(cyclohexylmethyl)-1H-indol-3-yl)-3-(3-(trifluoromethyl)phenyl) propanamide hydrochloride salt] showed a pIC50 in experiment [1] of 4.89. In addition, the MIC was more than 512 µg/mL in experiment [2] and 4 µg/mL in experiment [3].

Consider `CC(C)C(CC(=O)N[C@H]1CC[C@H](N)CC1)c1cn(CC2CCCCC2)c2ccccc12.Cl` (stereo partly drawn) [Compound 131, N-((1R,4R)-4-aminocyclohexyl)-3-(1-(cyclohexylmethyl)-1H-indol-3-yl)-4-methylpentanamide hydrochloride salt], for which the pIC50 in experiment [1] is 4.03. Further, the MIC in experiment [2] is 128 µg/mL; in experiment [3], 32 µg/mL.

In turn, `Cl.N[C@H]1CC[C@H](NC(=O)CC(c2cn(CC3CCCCC3)c3ccccc23)C2CCOCC2)CC1` (stereo partly drawn) [Compound 132, N-((1R,4R)-4-aminocyclohexyl)-3-(1-(cyclohexylmethyl)-1H-indol-3-yl)-3-(tetrahydro-2H-pyran-4-yl)propanamide hydrochloride salt] showed a pIC50 in experiment [1] of 3.72. Further, the MIC was more than 512 µg/mL in experiment [2] and 128 µg/mL in experiment [3].

`COc1cc(C)cc(C(CC(=O)N[C@H]2CC[C@H](N)CC2)c2cn(CC3CCCCC3)c3ccccc23)c1.Cl` (stereo partly drawn) [Compound 133, N-((1R,4R)-4-aminocyclohexyl)-3-(1-(cyclohexylmethyl)-1H-indol-3-yl)-3-(3-methoxy-5-methylphenyl) propanamide hydrochloride salt] showed a pIC50 in experiment [1] of 4.12. Besides, the MIC in experiment [2] and in experiment [3] was more than 512 µg/mL throughout.

In turn, `Cl.N[C@H]1CC[C@H](NC(=O)CC(c2ccc(F)c(F)c2)c2cn(CC3CCCCC3)c3ccccc23)CC1` (stereo partly drawn) [Compound 134, N-((1R,4R)-4-aminocyclohexyl)-3-(1-(cyclohexylmethyl)-1H-indol-3-yl)-3-(3,4-difluorophenyl)propanamide hydrochloride salt] had a pIC50 in experiment [1] of 4.72. Moreover, the MIC in experiment [2] worked out at 256 µg/mL; in experiment [3], 4 µg/mL.

Consider `Cl.N[C@H]1CC[C@H](NC(=O)CC(c2cccc(Cl)c2)c2cn(CC3CCCCC3)c3ccccc23)CC1` (stereo partly drawn) [Compound 135, N-((1r,4r)-4-aminocyclohexyl)-3-(3-chlorophenyl)-3-(1-(cyclohexylmethyl)-1H-indol-3-yl)propanamide hydrochloride salt], for which the pIC50 in experiment [1] is 5.10. The MIC in experiment [2] is 256 µg/mL; in experiment [3], 4 µg/mL.

In experiment [1], `Cl.N[C@H]1CC[C@H](NC(=O)CC(c2cc(Cl)cc(Cl)c2)c2cn(CC3CCCCC3)c3ccccc23)CC1` (stereo partly drawn) [Compound 136, N-((1r,4r)-4-aminocyclohexyl)-3-(1-(cyclohexylmethyl)-1H-indol-3-yl)-3-(3,5-dichlorophenyl) propanamide hydrochloride salt] had a pIC50 of 5.05. Besides, the figures for the MIC in experiment [2] and in experiment [3] were more than 512 µg/mL and 64 µg/mL, respectively.

As for `Cl.N[C@H]1CC[C@H](NC(=O)CC(c2cccc(F)c2)c2cn(CC3CCCCC3)c3ccccc23)CC1` (stereo partly drawn) [Compound 137, N-((1R,4R)-4-aminocyclohexyl)-3-(1-(cyclohexylmethyl)-1H-indol-3-yl)-3-(3-fluorophenyl) propanamide hydrochloride salt], the pIC50 in experiment [1] is 4.37. The MIC is 32 µg/mL in experiment [2] and 8 µg/mL in experiment [3].

Consider `Cl.N[C@H]1CC[C@H](NC(=O)CC(c2cccnc2)c2cn(CC3CCCCC3)c3ccccc23)CC1` (stereo partly drawn) [Compound 138, N-((1R,4R)-4-aminocyclohexyl)-3-(1-(cyclohexylmethyl)-1H-indol-3-yl)-3-(pyridin-3-yl)propanamide hydrochloride salt], for which the pIC50 in experiment [1] was 4.02. In addition, the MIC came out at 128 µg/mL in experiment [2] and 64 µg/mL in experiment [3].

In experiment [1], `Cc1ccc(C(CC(=O)NC2CCC(N)CC2)c2cn(CC3CCCCC3)c3ccccc23)cc1.Cl` [Compound 140, N-((1S,4S)-4-aminocyclohexyl)-3-(1-(cyclohexylmethyl)-1H-indol-3-yl)-3-(p-tolyl)propanamide hydrochloride salt] gave a pIC50 of 4.47. Besides, the MIC in experiment [2] is 64 µg/mL; in experiment [3] it was 8 µg/mL.

`NC1CCC(NC(=O)CC(c2cnc3ccccc3c2)c2cn(CC3CCCCC3)c3ccccc23)CC1` [Compound 142, N-((1S,4S)-4-aminocyclohexyl)-3-(1-(cyclohexylmethyl)-1H-indol-3-yl)-3-(quinolin-3-yl)propanamide hydrochloride salt] showed a pIC50 in experiment [1] of 4.36. Further, the MIC in experiment [2] amounted to 32 µg/mL; in experiment [3], 8 µg/mL.

Turning to `Cc1cccc(-c2ccc3c(c2)c(CCC(=O)NC2CCC(N)CC2)cn3CC2CCCCC2)c1.Cl` (stereo not drawn) [Compound 144, N-((1s,4s)-4-aminocyclohexyl)-3-(1-(cyclohexylmethyl)-5-(m-tolyl)-1H-indol-3-yl)propanamide hydrochloride salt], the pIC50 in experiment [1] is 5.12. Besides, the MIC came to 64 µg/mL in experiment [2] and 4 µg/mL in experiment [3].

Take `O=C(CC(c1cn(CC2CCCCC2)c2ccccc12)C1CCNCC1)NCCC1CCNCC1` (stereo not drawn) [Compound 145, 3-(1-(cyclohexylmethyl)-1H-indol-3-yl)-3-(piperidin-4-yl)-N-(2-(piperidin-4-yl)ethyl)propanamide hydrochloride salt]: the pIC50 in experiment [1] is 2.83. The MIC is more than 512 µg/mL in experiment [2] and 512 µg/mL in experiment [3].

The molecule `Cc1cccc(C(CC(=O)N[C@H]2CC[C@H](N(C)C)CC2)c2cn(CC3CCCCC3)c3ccccc23)c1.Cl` (stereo partly drawn) [Compound 146, 3-(1-(cyclohexylmethyl)-1H-indol-3-yl)-N-((1R,4R)-4-(dimethylamino)cyclohexyl)-3-(m-tolyl)propanamide hydrochloride salt] had a pIC50 in experiment [1] of 4.28. Besides, the MIC in experiment [2] turned out to be 256 µg/mL; in experiment [3] it was 8 µg/mL.

Source of the values: patent publication US20210246115A1 (Bioimics AB, priority 2017, published 2021).
